From patent US4443436A, “C-20-Modified macrolide derivatives of the macrolide antibiotics tylosin, desmycosin, macrocin, and lactenocin” (Eli Lilly and Company, priority 1982, dated 1984)
In brackets after ≈: the same amount, converted by molar mass. Read-outs that look alike come from different tables or passages of the source.

Experiments:
[1] = system: Staphylococcus aureus X1.1; test: MIC, standard agar-dilution assay, Staphylococcus aureus X1.1; format: cell-based
[2] = system: Staphylococcus aureus V41; test: MIC, standard agar-dilution assay, Staphylococcus aureus V41; format: cell-based
[3] = system: Staphylococcus aureus X400; test: MIC, standard agar-dilution assay, Staphylococcus aureus X400; format: cell-based
[4] = system: Staphylococcus aureus S13E; test: MIC, standard agar-dilution assay, Staphylococcus aureus S13E; format: cell-based
[5] = system: Staphylococcus epidermidis EPI1; test: MIC, standard agar-dilution assay, Staphylococcus epidermidis EPI1; format: cell-based
[6] = system: Staphylococcus epidermidis EPI2; test: MIC, standard agar-dilution assay, Staphylococcus epidermidis EPI2; format: cell-based
[7] = system: Streptococcus pyogenes C203; test: MIC, standard agar-dilution assay, Streptococcus pyogenes C203; format: cell-based
[8] = system: Streptococcus pneumoniae Park I; test: microbe, parasite or virus in culture; format: cell-based; conditions: Streptococcus pneumoniae
[9] = system: Streptococcus Group D X66; test: MIC, standard agar-dilution assay, Streptococcus Group D X66; format: cell-based; conditions: Streptococcus Group D X66, agar dilution
Streptococcus Group 9960 = test: MIC, standard agar-dilution assay, Streptococcus Group 9960; format: cell-based; conditions: Streptococcus Group 9960, agar dilution
[10] = system: Haemophilus influenzae Holt; test: MIC, standard agar-dilution assay, Haemophilus influenzae Holt; format: cell-based
Staphylococcus aureus = test: MIC, broth-dilution microtiter test, Staphylococcus aureus; format: cell-based
Excerpt: (§1) The MIC's in Table X were obtained using conventional broth-dilution microtiter tests.

Streptococcus bovis 80 = test: MIC, broth-dilution microtiter test, Streptococcus bovis 80; format: cell-based
Excerpt: as §1

[11] = system: Pasteurella multocida 17E; test: MIC, broth-dilution microtiter test, Pasteurella multocida 17E; format: cell-based; conditions: Pasteurella multocida 17E, bovine isolate, broth-dilution microtiter
Excerpt: as §1

[12] = system: Pasteurella multocida 60A; test: MIC, broth-dilution microtiter test, Pasteurella multocida 60A; format: cell-based
Excerpt: as §1

[13] = system: Pasteurella hemolytica 22C; test: MIC, broth-dilution microtiter test, Pasteurella hemolytica 22C; format: cell-based
Excerpt: as §1

Mycoplasma gallisepticum = test: MIC, broth-dilution microtiter test, Mycoplasma gallisepticum; format: cell-based
Excerpt: as §1

Mycoplasma synoviae = test: MIC, broth-dilution microtiter test, Mycoplasma synoviae; format: cell-based
Excerpt: as §1

Mycoplasma hyorhinis = test: MIC, broth-dilution microtiter test, Mycoplasma hyorhinis; format: cell-based
Excerpt: as §1

[14] = system: Streptococcus pyogenes C203; test: In vivo protection of mice experimentally infected with S. pyogenes C203; conditions: mice, doses given 1 and 4 hours post-infection; for ED50: Streptococcus pyogenes
Method: The C-20 modified derivatives of this invention have shown in vivo antimicrobial activity against experimentally-induced infections in laboratory animals. When two doses of test compound were administered to mice experimentally infected with S. pyogenes C203, the activity observed was measured as an ED50 value [effective dose in mg/kg to protect 50% of the test animals: see Warren Wick, et al., J. Bacteriol. 81, 233-235 (1961)].

[15] = system: Haemophilus influenzae R252; test: MIC, standard agar-dilution assay, Haemophilus influenzae R252; format: cell-based
[16] = Staphylococcus epidermidis, EPI1
[17] = Staphylococcus epidermidis, EPI2
[18] = Mycoplasma hyorhinis, broth-dilution microtiter, read-out: MIC
[19] = C203, sc, subcutaneous, read-out: ED50, Subcutaneous
[20] = C203, oral, read-out: ED50, Oral
[21] = Streptococcus equinus, Streptococcus bovis 80, broth-dilution microtiter, read-out: MIC
[22] = Pasteurella multocida 60A, avian isolate, broth-dilution microtiter, read-out: MIC
[23] = Pasteurella hemolytica 22C, broth-dilution microtiter, read-out: MIC

In the case of `CCOC(=O)c1ccc(OCCC2CC(C)C(=O)C=CC(C)=CC(COC3OC(C)C(O)C(OC)C3OC)C(CC)OC(=O)CC(O)C(C)C2OC2OC(C)C(O)C(N(C)C)C2O)cc1` (stereo not drawn) [Compound 38, 20-DH-20-O-[p-(Ethoxycarbonyl)phenyl]desmycosin], the MIC ([1]; Staphylococcus aureus, X1.1) was 0.5 µg/mL (≈ 0.542 µM), the MIC ([2]; Staphylococcus aureus, V41) was 0.5 µg/mL (≈ 0.542 µM) and the MIC ([3]; Staphylococcus aureus, X400) was 0.5 µg/mL (≈ 0.542 µM). The MIC ([4]; Staphylococcus aureus, S13E) was 0.5 µg/mL (≈ 0.542 µM), the MIC [5, 16] was 0.5 µg/mL (≈ 0.542 µM) and the MIC [6, 17] was 0.25 µg/mL (≈ 0.271 µM). For the same compound, the MIC ([7]; Streptococcus pyogenes, C203) was 0.5 µg/mL (≈ 0.542 µM), the MIC [8] was 1 µg/mL (≈ 1.08 µM) and the MIC ([9]; read-out: MIC) was 8 µg/mL (≈ 8.68 µM). The MIC (Streptococcus Group 9960; GROUP9960, read-out: MIC) was 16 µg/mL (≈ 17.4 µM), the MIC ([10]; Haemophilus influenzae) was 16 µg/mL (≈ 17.4 µM) and the MIC (Staphylococcus aureus) was 0.78 µg/mL (≈ 0.846 µM). The MIC (Streptococcus bovis 80; Streptococcus equinus, 80) was 0.78 µg/mL (≈ 0.846 µM), the MIC ([11]; read-out: MIC) was 25 µg/mL (≈ 27.1 µM) and the MIC ([12]; Pasteurella multocida, 60A) was 50 µg/mL (≈ 54.2 µM). It also gave an MIC ([13]; Pasteurella, 22C) of 50 µg/mL (≈ 54.2 µM), an MIC (Mycoplasma gallisepticum; Mycoplasmoides gallisepticum, Mycoplasma gallisepticum, broth-dilution microtiter, read-out: MIC) of 0.39 µg/mL (≈ 0.423 µM) and an MIC (Mycoplasma synoviae; Mycoplasmopsis synoviae) of 1.56 µg/mL (≈ 1.69 µM). The MIC (Mycoplasma hyorhinis; [18]) was 25 µg/mL (≈ 27.1 µM), the ED50 [14, 19] was greater than 10 mg/kg and the ED50 [14, 20] was 35 mg/kg.
Work on `CCC1OC(=O)CC(O)C(C)C(OC2OC(C)C(O)C(N(C)C)C2O)C(CCOc2ccc(CN3CCCCCC3)cc2)CC(C)C(=O)C=CC(C)=CC1COC1OC(C)C(O)C(OC)C1OC` (stereo not drawn) [Compound 42, 20-DH-20-O-[p-(Hexahydroazepin-1-ylmethyl)phenyl]desmycosin] yielded an MIC ([1]; Staphylococcus aureus X1.1, agar dilution) of 0.5 µg/mL (≈ 0.52 µM), an MIC ([2]; Staphylococcus aureus V41, penicillin-resistant strain, agar dilution) of 0.1 µg/mL (≈ 0.104 µM) and an MIC ([3]; Staphylococcus aureus X400, methicillin-resistant strain, agar dilution) of 1 µg/mL (≈ 1.04 µM). The MIC ([4]; Staphylococcus aureus S13E, agar dilution) was 0.5 µg/mL (≈ 0.52 µM), the MIC ([5]; Staphylococcus epidermidis EPI1, agar dilution) was 0.5 µg/mL (≈ 0.52 µM) and the MIC ([6]; Staphylococcus epidermidis EPI2, agar dilution) was 0.25 µg/mL (≈ 0.26 µM). For the same compound, the MIC ([7]; Streptococcus pyogenes C203, agar dilution) was 0.5 µg/mL (≈ 0.52 µM), the MIC [9] was 8 µg/mL (≈ 8.32 µM) and the MIC (Streptococcus Group 9960) was 8 µg/mL (≈ 8.32 µM). For the same compound, the MIC ([10]; Haemophilus influenzae Holt, ampicillin-sensitive strain, agar dilution) was 32 µg/mL (≈ 33.3 µM), the MIC ([15]; Haemophilus influenzae R252, ampicillin-resistant strain, agar dilution) was 32 µg/mL (≈ 33.3 µM) and the MIC (Staphylococcus aureus; broth-dilution microtiter) was 1.56 µg/mL (≈ 1.62 µM). It also gave an MIC (Streptococcus bovis 80; Streptococcus bovis 80, broth-dilution microtiter) of 3.12 µg/mL (≈ 3.25 µM), an MIC [11] of 12.5 µg/mL (≈ 13 µM) and an MIC ([12]; Pasteurella multocida 60A, avian isolate, broth-dilution microtiter) of 12.5 µg/mL (≈ 13 µM). For the same compound, the MIC ([13]; Pasteurella hemolytica 22C, broth-dilution microtiter) was 12.5 µg/mL (≈ 13 µM), the MIC (Mycoplasma gallisepticum; Mycoplasma gallisepticum, broth-dilution microtiter) was 0.39 µg/mL (≈ 0.406 µM) and the MIC (Mycoplasma synoviae; Mycoplasma synoviae, broth-dilution microtiter) was 0.195 µg/mL (≈ 0.203 µM). The MIC (Mycoplasma hyorhinis; Mycoplasma hyorhinis, broth-dilution microtiter) was 25 µg/mL (≈ 26 µM), the “ED50, Oral” value ([14]; oral) was greater than 100 mg/kg × 2 and the “ED50, Subcutaneous” value ([14]; subcutaneous) was greater than 25 mg/kg × 2.
Compound `CCC1OC(=O)CC(O)C(C)C(OC2OC(C)C(OC3CC(C)(O)C(O)C(C)O3)C(N(C)C)C2O)C(CCOS(=O)(=O)c2ccc(C)cc2)CC(C)C(=O)C=CC(C)=CC1COC1OC(C)C(O)C(O)C1OC` (stereo not drawn) [Compound 56, 20-DH-20-O-(p-Toluenesulfonyl)macrocin] has an MIC (Staphylococcus aureus) of 3.12 µg/mL (≈ 2.95 µM), an MIC (Streptococcus bovis 80; [21]) of 6.25 µg/mL (≈ 5.91 µM) and an MIC ([11]; read-out: MIC) greater than 50 µg/mL. For the same compound, the MIC [12, 22] was greater than 50 µg/mL, the MIC [13, 23] was greater than 50 µg/mL and the MIC (Mycoplasma gallisepticum; Mycoplasmoides gallisepticum) was 1.56 µg/mL (≈ 1.47 µM). The MIC (Mycoplasma synoviae; Mycoplasmopsis synoviae) was 12.5 µg/mL (≈ 11.8 µM) and the MIC (Mycoplasma hyorhinis; [18]) was greater than 50 µg/mL.
`CCC1OC(=O)CC(O)C(C)C(OC2OC(C)C(O)C(N(C)C)C2O)C(CCI)CC(C)C(=O)C=CC(C)=CC1COC1OC(C)C(O)C(O)C1OC` (stereo not drawn) [Compound 57, 20-DH-DO-20-Iodolactenocin] was tested, and the MIC ([1]; Staphylococcus aureus, X1.1) was 0.5 µg/mL (≈ 0.575 µM), the MIC ([2]; Staphylococcus aureus, V41) was 0.5 µg/mL (≈ 0.575 µM) and the MIC ([3]; Staphylococcus aureus, X400) was 1 µg/mL (≈ 1.15 µM). For the same compound, the MIC ([4]; Staphylococcus aureus, S13E) was 0.5 µg/mL (≈ 0.575 µM), the MIC [5, 16] was 0.5 µg/mL (≈ 0.575 µM) and the MIC [6, 17] was 0.5 µg/mL (≈ 0.575 µM). The MIC ([7]; Streptococcus pyogenes, C203) was 0.5 µg/mL (≈ 0.575 µM), the MIC [8] was 4 µg/mL (≈ 4.6 µM) and the MIC ([9]; read-out: MIC) was 16 µg/mL (≈ 18.4 µM). It also gave an MIC (Streptococcus Group 9960; GROUP9960, read-out: MIC) of 16 µg/mL (≈ 18.4 µM), an MIC (Staphylococcus aureus) of 0.78 µg/mL (≈ 0.897 µM) and an MIC (Streptococcus bovis 80; Streptococcus equinus, 80) of 3.12 µg/mL (≈ 3.59 µM). The MIC ([11]; read-out: MIC) was 25 µg/mL (≈ 28.7 µM), the MIC [12, 22] was 25 µg/mL (≈ 28.7 µM) and the MIC [13, 23] was 25 µg/mL (≈ 28.7 µM). For the same compound, the MIC (Mycoplasma gallisepticum; Mycoplasmoides gallisepticum) was 3.12 µg/mL (≈ 3.59 µM), the MIC (Mycoplasma synoviae; Mycoplasmopsis synoviae) was 1.56 µg/mL (≈ 1.79 µM) and the MIC (Mycoplasma hyorhinis; Mycoplasma) was 50 µg/mL (≈ 57.5 µM). For the same compound, the ED50 [14, 19] was 5.2 mg/kg and the ED50 [14, 20] was 79 mg/kg.
`CCC1CC(C)C(=O)C=CC(C)=CC(COC2OC(C)C(O)C(O)C2OC)C(CC)OC(=O)CC(O)C(C)C1OC1OC(C)C(O)C(N(C)C)C1O` (stereo not drawn) [Compound 60, 20-DH-DO-Lactenocin] gave an MIC ([1]; Staphylococcus aureus, X1.1) of 0.25 µg/mL (≈ 0.336 µM), an MIC ([2]; Staphylococcus aureus, V41) of 0.25 µg/mL (≈ 0.336 µM) and an MIC ([3]; Staphylococcus aureus, X400) of 0.5 µg/mL (≈ 0.672 µM). It also gave an MIC ([4]; Staphylococcus aureus, S13E) of 0.25 µg/mL (≈ 0.336 µM), an MIC [5, 16] of 0.25 µg/mL (≈ 0.336 µM) and an MIC [6, 17] of 0.25 µg/mL (≈ 0.336 µM). It also gave an MIC [8] of 0.5 µg/mL (≈ 0.672 µM), an MIC ([9]; read-out: MIC) of 8 µg/mL (≈ 10.8 µM) and an MIC (Streptococcus Group 9960; GROUP9960, read-out: MIC) of 8 µg/mL (≈ 10.8 µM). For the same compound, the MIC ([15]; Haemophilus influenzae, R252) was 16 µg/mL (≈ 21.5 µM), the MIC (Staphylococcus aureus) was 0.78 µg/mL (≈ 1.05 µM) and the MIC (Streptococcus bovis 80; [21]) was 6.25 µg/mL (≈ 8.4 µM). For the same compound, the MIC ([11]; read-out: MIC) was 25 µg/mL (≈ 33.6 µM), the MIC [12, 22] was 25 µg/mL (≈ 33.6 µM) and the MIC [13, 23] was 25 µg/mL (≈ 33.6 µM). It also gave an MIC (Mycoplasma gallisepticum; Mycoplasmoides gallisepticum) of 1.56 µg/mL (≈ 2.1 µM), an MIC (Mycoplasma synoviae; Mycoplasmopsis synoviae, Mycoplasma synoviae, broth-dilution microtiter, read-out: MIC) greater than 50 µg/mL and an MIC (Mycoplasma hyorhinis; Mycoplasma) of 50 µg/mL (≈ 67.2 µM). It also gave an ED50 [14, 19] of 3.9 mg/kg and an ED50 [14, 20] of 46 mg/kg.
